Patent US20250382556A1, “MODULATION OF THE BRANCHED-CHAIN METABOLITE CONTENT OF FRUITS AND VEGETABLES” (BOARD OF TRUSTEES OF MICHIGAN STATE UNIVERSITY, priority 2024, published 2025)

Tested on: flowering quince peel
Test: Free amino acid content of flowering quince peel via UPLC-MS/MS after AHAS inhibitor treatment
Type: in vivo, Chaenomeles x superba
Parameters: key to free asparagine content compared to control / free aspartate content compared to control / free cysteine content compared to control / free glutamate content compared to control / free glutamine content compared to control / free glycine content compared to control / free lysine content compared to control / free phenylalanine content compared to control / free threonine content compared to control / free tryptophan content compared to control / free tyrosine content compared to control / free alanine content compared to control / free arginine content compared to control: —: Dash indicates no significant difference between treatments
Description: Whole apple fruit, freshly harvested and at an early stage of ripening (‘ripening’), were held at room temperature (22° C.) and rubbed daily with 3 mL of a freshly made 1mM solution of the inhibitor rimsulfuron (N-((4,6-dimethoxypyrimidin-2-yl)aminocarbonyl)-3-(ethylsulfonyl)-2-pyridinesulfonamide, made from DuPont MATRIX® SG, 25% w/w active ingredient; 0.1% Tween 20) or water solution containing 0.1% Tween 20 before preparation with further treatments. Flowering quince fruit were smaller than the apple fruit and had 2 mL of the control and treatment solutions applied daily at 22° C. ‘Gala’, ‘Empire’, and ‘Jonagold’ apple fruit were treated for four, nine, and seven days before further preparation, respectively. Flowering quince fruit were treated for six days before analysis. Headspace volatile emissions were monitored for three or four representative fruits during the incubation/treatment period to determine appropriate times for further treatments. During method testing, 1 mM solutions of the imidazolinone imazamox was also assessed with apple fruit (2-[4,5-dihydro-4-methyl-4-(1-methylethyl)-5-oxo-1H-imidazol-2-yl]-5-(methoxymethyl)-3-pyridinecarboxylic acid, made from RAPTOR®, 12.1% w/w active ingredient; 0.1% Tween 20).
After volatile analysis, apple peel disks, collected peel of flowering quince, and ‘Valery’ pulp section samples were held at −80° C. for further amino acid analysis.
Frozen samples were ground to a powder in liquid nitrogen-chilled mortar and pestles. About 500 mg of tissue was vortexed for 10 sec in 2 mL of room temperature (22° C.) extraction solution (1:1:1 water:acetonitrile:ethanol, v/v/v) spiked with 2 nmoles of U-^13C,^15N labeled amino acids (MilliporeSigma) as internal standards and heated for 15 min in a 65° C. water bath. Extracts were briefly chilled on ice before centrifugation at 4400×g for 15 min at 4° C. The supernatant was filtered by centrifugation (0.2 μm nylon centrifugal filter; Costar, Corning) at 21000×g for 5 min at room temperature. 10 μL of the filtrate was transferred to an autosampler vial and diluted 100-fold with 990 μL of 10.1 mM perfluorohexanoic acid (PFHA) spiked with […] of internal standard. Thus the final concentration of internal standard was ˜2 μM.
An amino acid standard series was prepared from a premade mixture (MilliporeSigma, AAS18) that contained equal molar amounts of cystine and all 20 proteinogenic amino acids save for tryptophan, asparagine, glutamine, and cysteine. An equal molar mixture of tryptophan, asparagine, glutamine, and cysteine was subsequently prepared. To avoid dilution errors or artefacts from differing buffers, these amino acid stocks were aliquoted and desiccated such that a five-part standard series ranging from 250 μM to 25 nM would be produced upon resuscitation with 10 μL of spiked extraction buffer and 990 μL spiked PFHA solution.
Samples and amino acids were held overnight at −20° C. before analysis. Amino acids were analyzed with a Xevo TQ-S Micro UPLC (H-Class)-MS/MS (Waters) at the Michigan State University Mass Spectrometry and Metabolomics Core. Conditions were as follows. HPLC column: Acquirt UPLC HSS T3, 2.1×100 mm, 1.7 μm particle size (Waters), with a 0.2 μm pre-column filter (Waters). Mobile phase: A) 10 mM PFHA in water, B) acetonitrile. LC gradient: linear gradient, slope setting=6, flow rate=0.3 mL·min^−1, step 1) 0 min, 100% A, 0% B, 2) 1 min, 100% A, 0% B, 3) 8 min, 35% A, 65% B, 4) 8.01 min, 10% A, 90% B, 5) 9 min, 10% A, 90% B, 6) 9.01 min, 100% A, 0% B, 7) 13 min, 100% A, 0% B. Column temp: 40° C. Autosampler temp: 10° C. Injection volume: 10 μL. Tune parameters: electrospray ionization, standard ESI probe, capillary voltage=+1.0 kV, source temp=120° C., desolvation temp=350° C., desolvation gas=800 L·hr^−1, cone gas=40 L·hr^−1. MS collection was split into three phases and were adjusted after checking the retention time of several samples; however proline was missed for apple and flowering quince samples. […]

[1] = Dr. Banks Pink flowering quince peel, 1 mM daily, six days

CCS(=O)(=O)c1cccnc1S(=O)(=O)NC(=O)Nc1nc(OC)cc(OC)n1 [rimsulfuron, N-((4,6-dimethoxypyrimidin-2-yl)aminocarbonyl)-3-(ethylsulfonyl)-2-pyridinesulfonamide]
free alanine content compared to control [1]: — | free arginine content compared to control [1]: — | free asparagine content compared to control [1]: — | free aspartate content compared to control [1]: — | free cysteine content compared to control [1]: — | free glutamate content compared to control [1]: — | free glutamine content compared to control [1]: — | free glycine content compared to control [1]: — | free histidine content compared to control [1]: 166.5 ± 20.1% | free isoleucine content compared to control [1]: 51.3 ± 9.1% | free leucine content compared to control [1]: 81.9 ± 5.4% | free lysine content compared to control [1]: — | free methionine content compared to control [1]: 245.3 ± 38.5% | free phenylalanine content compared to control [1]: — | free serine content compared to control [1]: 302.1 ± 32.0% | free threonine content compared to control [1]: — | free tryptophan content compared to control [1]: — | free tyrosine content compared to control [1]: — | free valine content compared to control [1]: 28.1 ± 3.8% | leucine content reduced (flowering quince peel tissue): 18.1% | total content of free amino acids (flowering quince peel tissue): not significantly altered | valine and isoleucine collectively reduced (flowering quince peel tissue): 64.2%
